Columns and labels:
Format in all cases: ADME, organism-based
[1] = Volume of distribution at steady state in CD-1 mouse at 3 mg/kg, iv and 10 mg/kg, po; settings: in vivo, read-out: Vdss
[2] = Half life in CD-1 mouse at 3 mg/kg, iv; parameters: dose 3 mg/kg, route intravenous; settings: in vivo
[3] = Oral bioavailability in CD-1 mouse at 10 mg/kg; settings: in vivo
[4] = Clearance in CD-1 mouse at 3 mg/kg, iv and 10 mg/kg, po; settings: in vivo
[5] = AUC in CD-1 mouse at 10 mg/kg, po; parameters: dose 10 mg/kg, route oral; settings: plasma

Compound	Vd [1]	half-life [2]	bioavailability [3]	clearance [4]	AUC [5]
Cc1ccc(-c2ncc[nH]2)cc1NC(=O)c1ccc(OCc2ccccn2)cc1	0.5 L/kg	60 min	83%	0.498 L/h/kg	12.5 µg·h/mL
Cc1ccc(-c2ncc(C)n2C)cc1NC(=O)c1ccc(OCc2ccccn2)cc1	12 L/kg	54 min	22%	12.6 L/h/kg	0.1 µg·h/mL
